Experimental data: patent US8338422B2, “Indolin-2-ones and aza-indolin-2-ones” (Janssen Pharmaceutica NV, priority 2007, dated 2012)

How the values were obtained:
[1] = test system: MDA/MB231; experiment: Cellular proliferation assay (Alamar blue), MDA/MB231; format: cell-based; details: Homo sapiens, MDA-MB-231, 72 h, MDA/MB231 cells, 72 hours with compound, 10% FCS, read-out: pIC50 MDA/MB231 (converted)
How it was run: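 Cells in 10% FCS were seeded and left 24 h without compound, then treated for 72 h at 37° C. Viability read with Alamar blue (resazurin 9 μg/ml, ferro-/ferricyanide 90 μM each), incubated 4 h for H460 and 24 h for MDA-MB-231; fluorescence 544/590 nm, effect relative to control cells.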

[2] = test system: H1299; experiment: Cellular proliferation assay (Alamar blue), H1299; format: cell-based; details: Homo sapiens, NCI-H1299, 72 h, H1299 cells, 72 hours with compound, 10% FCS, read-out: pIC50 H1299 (converted)
How it was run: (§1)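 Proliferation was assessed over 72 h of compound treatment, following 24 h of seeding without compound, under 10% FCS, 37° C. and 5% CO2. Fluorescent resazurin product was measured and compared with control cells.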

[3] = test system: PC-3; experiment: Cellular proliferation assay (Alamar blue), PC-3; format: cell-based; details: Homo sapiens, PC-3, 72 h, PC-3 cells, 72 hours with compound, 10% FCS, read-out: pIC50 PC-3 (converted)
How it was run: as §1

[4] = target: PLK4 (h) (Homo sapiens, UniProt O00444); experiment: PLK-4 human kinase assay (SPA); format: biochemical; details: read-out: PLK4 pIC50 (converted)
How it was run: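 Radiometric readout: 33P-labelled peptide captured on streptavidin SPA beads after EDTA stop, imaged by Leadseeker. Reaction ran 60 min at room temperature in Hepes pH 8.0 buffer. It contained 1 μM ATP with 2 nM [γ-33P]ATP, 10 μM biotinylated peptide and PLK4 (h) at 19 μg/ml.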

[5] = test system: A2780; experiment: Cellular proliferation assay (Alamar blue), A2780; format: cell-based; details: Homo sapiens, A2780, 72 h, A2780 cells, 72 hours with compound, 10% FCS, read-out: pIC50 A2780 (converted)
How it was run: as §1

[6] = test system: HCT-116; experiment: Cellular proliferation assay (Alamar blue), HCT-116; format: cell-based; details: Homo sapiens, HCT-116, 72 h, HCT-116 cells, 72 hours with compound, 10% FCS, read-out: pIC50 HCT-116 (converted)
How it was run: as §1

[7] = target: CDK1/CyclinB (h) (Homo sapiens, UniProt P06493); experiment: CDK1/CyclinB human kinase assay (FRET); format: biochemical; details: read-out: CDK1 pIC50 (converted)
How it was run: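 Z'-LYTE FRET format: 0.2 μg/ml enzyme with 2 μM Ser/Thr peptide 12 and 10 μM ATP in 50 mM Hepes pH 7.5, 10 mM MgCl2, 1 mM EGTA, 0.01% Brij-35, 60 min at room temperature. Protease development 60 min; coumarin/fluorescein emission ratio (460/538 nm, excitation 390 nm) reports phosphorylation.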

[8] = target: GSK3β (h) (Homo sapiens, UniProt P49841); experiment: GSK-3β human kinase assay (SPA); format: biochemical; details: read-out: GSK3B pIC50 (converted)
How it was run: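 Radiometric SPA read-out: after EDTA stop, biotinylated 33P-labelled peptide bound streptavidin PVT beads and was imaged on Leadseeker. Reaction: 60 min, room temperature, GSK3β (h) at 1 μg/ml, 1 μM substrate peptide, 1 μM ATP with 2 nM [γ-33P]ATP, Tris pH 7.4/MgCl2/DTT buffer.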

[9] = target: AuroraB (h) (Homo sapiens, UniProt Q96GD4); experiment: Aurora-B human kinase assay (SPA); format: biochemical; details: read-out: AuroraB pIC50 (converted)
How it was run: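 Scintillation proximity assay: AuroraB (h) at 0.5 μg/ml with 3 μM biotinylated peptide, 0.5 μM ATP and 2.2 nM [γ-33P]ATP in 60 mM Hepes pH 7.5, 3 mM MgCl2, 3 mM MnCl2, 2 mM DTT. 60 min at room temperature, EDTA stop, streptavidin PVT beads read on Leadseeker.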

[10] = test system: U87MG; experiment: Cellular proliferation assay (Alamar blue), U87MG; format: cell-based; details: Homo sapiens, U-87 MG, 72 h, U87MG cells, 72 hours with compound, 10% FCS, read-out: pIC50 U87MG (converted)
How it was run: as §1

Chain of CDK1/CyclinB (h) (P06493 whole entry): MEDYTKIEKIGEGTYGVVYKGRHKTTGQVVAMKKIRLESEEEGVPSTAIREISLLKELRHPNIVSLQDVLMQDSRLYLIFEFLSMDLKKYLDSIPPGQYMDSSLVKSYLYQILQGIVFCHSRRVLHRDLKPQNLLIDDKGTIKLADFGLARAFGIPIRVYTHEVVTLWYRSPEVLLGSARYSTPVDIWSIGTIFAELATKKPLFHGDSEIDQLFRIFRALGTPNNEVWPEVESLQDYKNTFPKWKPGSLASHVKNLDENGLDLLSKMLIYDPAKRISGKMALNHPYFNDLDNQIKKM
Chain of CDK1/CyclinB (h) (P14635 whole entry partner): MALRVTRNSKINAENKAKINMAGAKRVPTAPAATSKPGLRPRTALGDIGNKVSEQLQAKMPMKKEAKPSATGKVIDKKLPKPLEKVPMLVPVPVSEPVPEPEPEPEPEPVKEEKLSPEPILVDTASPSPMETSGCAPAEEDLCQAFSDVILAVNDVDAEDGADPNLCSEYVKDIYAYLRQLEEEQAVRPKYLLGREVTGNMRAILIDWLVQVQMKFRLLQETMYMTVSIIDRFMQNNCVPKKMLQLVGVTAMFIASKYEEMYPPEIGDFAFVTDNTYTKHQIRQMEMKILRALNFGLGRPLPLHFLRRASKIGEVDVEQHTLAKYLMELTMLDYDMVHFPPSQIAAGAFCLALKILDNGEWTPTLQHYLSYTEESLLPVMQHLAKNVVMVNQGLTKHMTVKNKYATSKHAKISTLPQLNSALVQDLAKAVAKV
Chain of AuroraB (h) (Q96GD4 whole entry): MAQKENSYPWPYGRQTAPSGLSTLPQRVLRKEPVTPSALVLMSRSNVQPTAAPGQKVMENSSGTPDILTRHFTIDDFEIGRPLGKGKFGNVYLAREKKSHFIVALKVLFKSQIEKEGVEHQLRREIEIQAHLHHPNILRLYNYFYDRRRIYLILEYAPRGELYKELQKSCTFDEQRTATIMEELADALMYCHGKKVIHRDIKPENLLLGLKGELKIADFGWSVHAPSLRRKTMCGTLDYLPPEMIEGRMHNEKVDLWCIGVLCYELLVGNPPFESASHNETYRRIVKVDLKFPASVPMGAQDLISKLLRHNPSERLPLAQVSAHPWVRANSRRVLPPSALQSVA
Chain of PLK4 (h) (O00444 whole entry): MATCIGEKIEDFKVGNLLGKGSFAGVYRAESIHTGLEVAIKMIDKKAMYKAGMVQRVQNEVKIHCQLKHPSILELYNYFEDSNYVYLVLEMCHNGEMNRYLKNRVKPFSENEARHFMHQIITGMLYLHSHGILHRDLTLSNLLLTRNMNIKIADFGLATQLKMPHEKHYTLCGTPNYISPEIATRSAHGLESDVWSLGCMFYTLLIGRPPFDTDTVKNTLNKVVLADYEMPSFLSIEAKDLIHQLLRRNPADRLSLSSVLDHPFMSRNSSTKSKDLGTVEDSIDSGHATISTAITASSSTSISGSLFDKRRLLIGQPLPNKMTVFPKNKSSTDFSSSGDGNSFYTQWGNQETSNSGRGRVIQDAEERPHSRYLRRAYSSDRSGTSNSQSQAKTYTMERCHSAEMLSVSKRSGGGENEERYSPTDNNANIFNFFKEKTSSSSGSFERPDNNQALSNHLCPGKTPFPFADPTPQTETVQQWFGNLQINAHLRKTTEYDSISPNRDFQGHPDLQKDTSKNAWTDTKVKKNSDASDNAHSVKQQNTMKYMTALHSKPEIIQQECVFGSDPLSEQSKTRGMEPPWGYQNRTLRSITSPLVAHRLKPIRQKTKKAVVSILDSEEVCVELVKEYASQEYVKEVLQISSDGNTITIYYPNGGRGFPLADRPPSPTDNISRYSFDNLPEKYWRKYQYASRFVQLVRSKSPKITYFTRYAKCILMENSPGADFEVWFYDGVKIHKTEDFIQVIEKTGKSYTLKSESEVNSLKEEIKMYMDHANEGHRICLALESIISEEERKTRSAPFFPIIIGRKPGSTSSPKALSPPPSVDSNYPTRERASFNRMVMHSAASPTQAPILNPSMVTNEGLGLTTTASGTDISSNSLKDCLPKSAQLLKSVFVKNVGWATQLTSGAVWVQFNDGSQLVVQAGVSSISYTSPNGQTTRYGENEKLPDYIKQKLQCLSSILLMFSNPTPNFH
Chain of GSK3β (h) (P49841 whole entry): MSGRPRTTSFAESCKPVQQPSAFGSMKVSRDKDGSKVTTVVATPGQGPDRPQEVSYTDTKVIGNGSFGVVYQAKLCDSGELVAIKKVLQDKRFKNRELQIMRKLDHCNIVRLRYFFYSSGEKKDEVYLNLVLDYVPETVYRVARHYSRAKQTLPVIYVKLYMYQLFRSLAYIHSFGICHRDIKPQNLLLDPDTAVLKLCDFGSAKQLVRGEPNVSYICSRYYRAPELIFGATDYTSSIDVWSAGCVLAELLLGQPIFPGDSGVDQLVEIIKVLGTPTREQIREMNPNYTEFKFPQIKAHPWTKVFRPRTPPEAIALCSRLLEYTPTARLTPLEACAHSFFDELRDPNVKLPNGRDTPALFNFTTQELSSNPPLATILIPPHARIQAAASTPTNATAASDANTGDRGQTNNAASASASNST

Row | IC50 [2] [µM] | IC50 [3] [µM] | IC50 [4] [µM] | IC50 [5] [µM] | IC50 [6] [µM] | IC50 [7] [µM] | IC50 [8] [µM] | IC50 [9] [µM] | IC50 [10] [µM] | Compound | IC50 [1] [µM]
1 | > 10 | > 10 | 9.55 | > 10 | 1.95 | > 10 | 4.47 | 6.61 | 7.24 | CN1CCNC(=O)CCCCCOc2cc(ccc2Cl)N/C=C2\C(=O)Nc3ncnc1c32 [Compound 52] | > 10
2 | > 10 | > 10 | 2.34 | > 10 | > 10 | > 10 | 0.794 | > 10 | > 10 | CN1CCCN(C)c2ncnc3c2/C(=C/Nc2cccc(c2)OCCCCCCC1=O)C(=O)N3 [Compound 53] | > 10
3 | 0.562 | > 10 | 0.105 | > 10 | 0.55 | 0.0479 | 0.115 | 0.191 | 5.25 | COc1cc2cc(c1OC)OCCCC(=O)N(C)CCCNc1ncnc3c1/C(=C/N2)C(=O)N3 [Compound 112] | > 10
4 | 8.91 | 8.13 | 4.9 | > 10 | 4.9 | > 10 | > 10 | 0.309 | 6.31 | CN1CCCNc2ncnc3c2/C(=C/Nc2cc(cc(C(F)(F)F)c2)OCCCCC1=O)C(=O)N3 [Compound 130] | > 10
5 | > 10 | > 10 | 0.417 | > 10 | 0.912 | > 10 | > 10 | > 10 | > 10 | COc1cc2cc(c1OC)OCCCC(=O)N(C)CCNc1ncnc3c1/C(=C/N2)C(=O)N3 [Compound 132] | > 10
6 | > 10 | > 10 | 3.16 | > 10 | > 10 | > 10 | 0.363 | 2.34 | > 10 | CN1CCCCNc2ncnc3c2/C(=C/Nc2cccc(c2)OCC1=O)C(=O)N3 [Compound 143] | > 10

Second part, the compound before the results:

Row | Compound | IC50 [2] [µM] | IC50 [3] [µM] | IC50 [4] [µM] | IC50 [5] [µM] | IC50 [6] [µM] | IC50 [7] [µM] | IC50 [8] [µM] | IC50 [9] [µM] | IC50 [10] [µM] | IC50 [1] [µM]
7 | CN1CCCCCCC(=O)NCCN(C)c2ncnc3c2/C(=C/Nc2cccc(c2)C1)C(=O)N3 [Compound 54] | > 10 | > 10 | > 10 | > 10 | > 10 | > 10 | > 10 | > 10 | > 10 | > 10
8 | CN1CCNC(=O)CCCOc2cc(ccc2Cl)N/C=C2\C(=O)Nc3ncnc1c32 [Compound 55] | > 10 | > 10 | > 10 | > 10 | > 10 | > 10 | > 10 | > 10 | > 10 | > 10
9 | COc1cc2cc(c1OC)CN(C)CC(=O)N(C)CCCNc1ncnc3c1/C(=C/N2)C(=O)N3 [Compound 125] | > 10 | > 10 | > 10 | > 10 | > 10 | > 10 | 9.77 | > 10 | > 10 | > 10
10 | CN1CCN(c2ccc3cc2CN(C)CCCCCC(=O)N(C)CCNc2ncnc4c2/C(=C/N3)C(=O)N4)CC1 [Compound 126] | > 10 | > 10 | 0.676 | > 10 | > 10 | > 10 | 3.89 | > 10 | 6.31 | > 10
11 | CN1CCNc2ncnc3c2/C(=C/Nc2cccc(c2)OCC(=O)N(C)CC1)C(=O)N3 [Compound 148] | > 10 | > 10 | 1.82 | > 10 | > 10 | > 10 | 1 | 4.47 | > 10 | > 10
